Among the data in the NIST ThermoML archive (doi:10.1021/je200373q) are mass density values, retold here.

SMILES strings stand for the structures. Numbers after ± are expanded uncertainties.

For the data set the following is noted: 101.33 kPa, Liquid, Vibrating tube method.

Consider `CCCCCCCCC` [nonane], for which the mass density reads like this: (273.15 K) 732.83 ± 0.25 kg/m3; (278.15 K) 729.01 ± 0.25 kg/m3; (283.15 K) 725.16 ± 0.25 kg/m3; (288.15 K) 721.32 ± 0.25 kg/m3; (293.15 K) 717.45 ± 0.25 kg/m3; (298.15 K) 713.58 ± 0.25 kg/m3. In addition, the mass density by setting is: (303.15 K) 709.69 ± 0.25 kg/m3; (308.15 K) 705.78 ± 0.25 kg/m3; (313.15 K) 701.86 ± 0.25 kg/m3; (318.15 K) 697.91 ± 0.25 kg/m3; (323.15 K) 693.95 ± 0.25 kg/m3; (328.15 K) 689.97 ± 0.25 kg/m3. Further, the mass density runs as follows: (333.15 K) 685.97 ± 0.25 kg/m3; (338.15 K) 681.94 ± 0.25 kg/m3; (343.15 K) 677.88 ± 0.25 kg/m3; (348.15 K) 673.91 ± 0.25 kg/m3; (353.15 K) 669.71 ± 0.26 kg/m3; (358.15 K) 665.58 ± 0.26 kg/m3. Also, the mass density (363.15 K) is listed as 661.14 ± 0.26 kg/m3.

Take `CCCCCCCC` [octane]: the mass density (273.15 K) was determined as 718.25 ± 0.25 kg/m3; the mass density (278.15 K) is reported as 714.31 ± 0.25 kg/m3; the mass density (283.15 K) is recorded as 710.34 ± 0.25 kg/m3; the mass density (288.15 K) is recorded as 706.35 ± 0.25 kg/m3; the mass density (293.15 K) was found to be 702.35 ± 0.25 kg/m3; the mass density (298.15 K) is reported as 698.34 ± 0.25 kg/m3. The mass density by setting is: (303.15 K) 694.3 ± 0.25 kg/m3; (308.15 K) 690.24 ± 0.25 kg/m3; (313.15 K) 686.17 ± 0.25 kg/m3; (318.15 K) 682.06 ± 0.25 kg/m3; (323.15 K) 677.94 ± 0.25 kg/m3; (328.15 K) 673.79 ± 0.25 kg/m3. Moreover, the mass density runs as follows: (333.15 K) 669.61 ± 0.26 kg/m3; (338.15 K) 665.4 ± 0.26 kg/m3; (343.15 K) 661.16 ± 0.26 kg/m3; (348.15 K) 656.88 ± 0.26 kg/m3; (353.15 K) 652.57 ± 0.26 kg/m3; (358.15 K) 648.23 ± 0.26 kg/m3. For the same molecule, the mass density (363.15 K) was 643.83 ± 0.26 kg/m3.
